Paper PMC8203924, “Development of a Potent Antimicrobial Peptide With Photodynamic Activity” (Frontiers in Microbiology, 2021)
Converted amounts (≈) assume the structure as drawn. Like-named read-outs stand apart in the source and are kept apart here. Peptide text beside a SMILES is read from it. * marks the point of attachment. X1 = O=C(c1ccc2c3nc4nc(nc5[nH]c(nc6nc(nc([nH]3)c2c1)-c1ccccc1-6)c1ccccc51)-c1ccccc1-4)*

Columns and labels:
[1] = system: S. aureus (ATCC 6538); assay type: cell-based, Staphylococcus aureus; details: ATCC 6538, 20 h
Protocol: (§1) E. coli (ATCC 8739), S. aureus (ATCC 6538), or MRSA (ATCC 33591) were grown in LB culture medium at 37°C under aerobic conditions overnight (8–12 h) before use.
(§2) Bactericidal kinetics assay was also determined.

[2] = system: MRSA (ATCC 33591); assay type: cell-based, methicillin-resistant S. aureus; details: ATCC 33591, 20 h
Protocol: as §1, §2

[3] = system: E. coli (ATCC 8739); assay type: cell-based, Escherichia coli; details: ATCC 8739, 20 h
Protocol: as §1, §2

[4] = system: bioluminescent S. aureus; assay type: cell-based, Staphylococcus aureus; details: without light; for higher efficacy than compound 1 or 2: on both bacterial strains (bioluminescent S. aureus and E. coli); for IC50: bioluminescent S. aureus, 10^6 CFU/ml in PBS, peptides in PBST, luminescence monitored 1 h, triplicate, mean ± SD, read-out: IC50 against S. aureus
Description: The side chain-protected peptides G3(RW)3, G3(RW)3K5, and G3K5(RW)3 on Wang resin were obtained commercially (GL Biochem Ltd., Shanghai). Beta-carboxy phthalocyanine zinc was developed by us by a method previously reported ([Chen et al., 2006]). Beta-carboxy phthalocyanine (β-PcCOOH) was purified on a silica column with N,N-dimethylformamide (DMF):acetone (3:1) as the second band. All the chemical reagents were analytical grade and used without further purification. Distilled water was used throughout the experiments. E. coli (ATCC 8739), S. aureus (ATCC 6538), and MRSA (ATCC 33591) were acquired from ATCC. Bioluminescent strains of E. coli DH5α were constructed by transformation of plasmid pAKlux2.1, which contained a complete bacterial luciferase operon as described ([Ullah et al., 2018]; [Chen et al., 2019]), and S. aureus Xen29 (NCTC8532) containing a stable copy of the modified Photorhabdus luminescens luxABCDE operon was purchased from Shanghai Biofeng Company.
(§3) Bioluminescent bacteria were grown in Luria-Bertani (LB) culture medium at 37°C under aerobic conditions overnight 8–12 diluted 100 times to 10^6 colony-forming units (CFU)/ml in phosphate buffered saline (PBS) before incubating with the peptides. The peptide or new compounds were first dissolved in PBST (PBS with 0.05% Tween 20) to prepare 1-mM stock solutions, and the solutions were then further diluted up to 100 μM with PBST. The bacterial suspensions were then incubated in 96-well plates with the compound peptides. The luminescence was monitored for 1 h to measure the bacterial viability. The percentage of survived bacteria was determined from the luminescence intensities of the treated group divided by the luminescence signal of the controls.

[5] = system: bioluminescent S. aureus; assay type: cell-based, Staphylococcus aureus; details: for IC50: bioluminescent S. aureus, 680 nm LED 6 min, 12 J/cm^2, 33.33 mW/cm^2, after 10 min incubation, triplicate, mean ± SD, read-out: IC50 against S. aureus upon illumination
Protocol: as §3
(§4) For photo-assisted antimicrobial activity measurements against bioluminescent bacteria, we used a procedure similar to as above, but with illumination using LM-LED light (680 nm) for 6 min (light dose of 12 J/cm^2, 33.33 mW/cm^2) after 10 min incubation of the bacterial suspensions and the compound peptides.

[6] = system: E. coli (ATCC 8739); details: 2 μM
Protocol: as §1
(§5) Photo-assisted antimicrobial activity assays of the compound peptides against ATCC standard strains were carried out by colony counting method. The agar plates with only bacterial suspension were used as negative control. The peptide and bacterial suspension were incubated together in 96-well microplates first. Under the same conditions, for comparison, the other groups were set without light. After incubation for 40 min at room temperature, aliquots of 100 μl were taken out of the solutions and placed on agar plates at serial dilutions, then incubated at 37°C for 18–24 h. Numbers of colonies were counted, and the antimicrobial rate (R) was calculated: R = (B-A)/B × 100%. Here, A is the bacterial colony number on the agar plates containing various concentrations of the peptides, and B is the colony number for negative control.

[7] = system: S. aureus (ATCC 6538); details: 2 μM
Protocol: as §1, §5

[8] = system: MRSA (ATCC 33591); assay: Photo-assisted antimicrobial activity by colony counting method; assay type: cell-based, methicillin-resistant S. aureus; details: 2 μM, 6 min illumination, 12 J/cm^2, 33.33 mW/cm^2, colony counting, start 10^6 CFU/ml
Protocol: as §1, §5

[9] = mouse, in vivo, iv
Protocol: The mice were sacrificed at 2, 4, 8, 12, 24, 36, 48, and 72 h post-injection, and their primary organs (liver, kidneys, heart, spleen, lung, stomach, intestines) or muscles were collected postmortem. Meanwhile, their blood was collected through enucleation of eyeballs. These samples were then washed with saline and imaged on the three-dimension FMT 2500TM LX (PerkinElmer, Waltham, MA, United States) using the same acquisition settings as the in vivo imaging to quantitate the peptide average concentrations in the samples.

[10] = mouse, in vivo, iv; remark: listed apart in the source
Protocol: The blood of mice was diluted 10 times with DMF, immediately after collection, and then centrifuged to get supernatant for further determination. The supernatant was measured by fluorescence spectrophotometer F-4600 (HITACHI, Tokyo, Japan). The fluorescence intensity was recorded. The excitation and emission wavelengths were set at 610 and 680 nm. […] The plasma half-life (t1/2) can be calculated by the following formula:
Here, k represents the slope of fluorescence intensity-log (concentration) regression equation.

[11] = system: S. aureus; details: 1-MIC, 12 h, OD600 hourly, 37°C
Protocol: (§6) Bactericidal kinetics assay was also determined. Different final concentrations (0, 1/8-, 1/4-, 1/2-, 1-MIC) of the peptides were added to the bioluminescent S. aureus suspension (10^3 CFU/ml). The bacteria were incubated at 37°C and 150 rpm. An aliquot of 100 μl of the suspension was taken out to measure the absorption at 600 nm on microplate reader once an hour for up to 12 h.

[12] = system: E. coli; details: 1-MIC, 12 h, OD600 hourly, 37°C
Protocol: as §6

[13] = system: S. aureus
Description: Kunming mice (4-week-old, 25 ± 2 g, purchased from Shanghai SLAC Laboratory Animal Co. Ltd., Shanghai, China) were maintained and handled in accordance with the recommendations of the Institutional Animal Care And Use Committee (IACUC). […] Each group had six mice. All groups of mice were allowed free access to water and food throughout the experimental process. In each group, excisional wounds (10 mm × 10 mm) was made on the dorsal surface of the mouse by disinfected scissors to a depth of 2.0 mm. The bottom of the wound was panniculus carnosus with no visible bleeding. An aliquot (50 μl) of mid-log phase S. aureus (10^8 CFU/ml) was then inoculated into each wound of mice. […] The area of the wounds and body weight of mice were measured each day.

[14] = in vitro; details: human, human embryonic lung fibroblast (HELF) cells
Protocol: The culture medium was used as control. The cells were washed with PBS, then were divided into two groups, and the light group was exposed to 12 J/cm^2 of 680 nm light illumination. After another 12-h incubation, the culture medium was refreshed and 3-(4,5-dimethylthiazol-2-yl)-2,5-diphenyltetrazolium bromide (MTT) was added. After 4-h incubation at 37°C, the absorbance at 490 nm was measured on a multi-mode microplate reader (BioTek Synergy 4). The inhibition rate of cell growth was calculated by the following equation:
Cell viability%=Mean absorbance value of treatment group/Mean absorbance value of control×100%

[15] = system: bioluminescent E. coli; assay type: cell-based, Escherichia coli; details: 10^6 CFU/ml in PBS, peptides in PBST, luminescence monitored 1 h, without light, triplicate, mean ± SD, read-out: IC50 against E. coli
Description: The side chain-protected peptides G3(RW)3, G3(RW)3K5, and G3K5(RW)3 on Wang resin were obtained commercially (GL Biochem Ltd., Shanghai). Beta-carboxy phthalocyanine zinc was developed by us by a method previously reported ([Chen et al., 2006]). Beta-carboxy phthalocyanine (β-PcCOOH) was purified on a silica column with N,N-dimethylformamide (DMF):acetone (3:1) as the second band. All the chemical reagents were analytical grade and used without further purification. Distilled water was used throughout the experiments. E. coli (ATCC 8739), S. aureus (ATCC 6538), and MRSA (ATCC 33591) were acquired from ATCC. […]
Bioluminescent bacteria were grown in Luria-Bertani (LB) culture medium at 37°C under aerobic conditions overnight 8–12 diluted 100 times to 10^6 colony-forming units (CFU)/ml in phosphate buffered saline (PBS) before incubating with the peptides. […] The luminescence was monitored for 1 h to measure the bacterial viability. The percentage of survived bacteria was determined from the luminescence intensities of the treated group divided by the luminescence signal of the controls.

[16] = system: bioluminescent E. coli; assay: Photo-assisted antimicrobial activity against bioluminescent bacteria; assay type: cell-based, Escherichia coli; details: 680 nm LED 6 min, 12 J/cm^2, 33.33 mW/cm^2, after 10 min incubation, triplicate, mean ± SD, read-out: IC50 against E. coli upon illumination
Protocol: as §3, §4

[17] = 36-s exposure or 0.60 J/cm^2, 33.33 mW/cm^2
[18] = 6 min illumination, 12 J/cm^2, 33.33 mW/cm^2, colony counting
[19] = 6 min illumination, 12 J/cm^2, 33.33 mW/cm^2, colony counting, start 10^6 CFU/ml

Compound | MIC against S. aureus [1] | MIC against MRSA [2] | MIC against E. coli [3] | higher efficacy than compound 1 or 2 [4] | IC50 [4] | IC50 [15] | IC50 [5] | IC50 [16] | other results
N=C(N)NCCC[C@H](NC(=O)CNC(=O)CNC(=O)CNC(=O)c1ccc2c3nc4nc(nc5[nH]c(nc6nc(nc([nH]3)c2c1)-c1ccccc1-6)c1ccccc51)-c1ccccc1-4)C(=O)N[C@@H](Cc1c[nH]c2ccccc12)C(=O)N[C@@H](CCCNC(=N)N)C(=O)N[C@@H](Cc1c[nH]c2ccccc12)C(=O)N[C@@H](CCCNC(=N)N)C(=O)N[C@@H](Cc1c[nH]c2ccccc12)C(=O)O [Compound 3, PcG3(RW)3] (X1-GGGRWRWRW-OH) | 12.0 µM (≈ 21.1 µg/mL) | 24.0 µM (≈ 42.2 µg/mL) | 48.0 µM (≈ 84.3 µg/mL) | – | – | – | – | – | –
N=C(N)NCCC[C@H](NC(=O)[C@H](Cc1c[nH]c2ccccc12)NC(=O)[C@H](CCCNC(=N)N)NC(=O)[C@H](Cc1c[nH]c2ccccc12)NC(=O)[C@H](CCCNC(=N)N)NC(=O)[C@H](CCCCN)NC(=O)[C@H](CCCCN)NC(=O)[C@H](CCCCN)NC(=O)[C@H](CCCCN)NC(=O)[C@H](CCCCN)NC(=O)CNC(=O)CNC(=O)CNC(=O)c1ccc2c3nc4nc(nc5[nH]c(nc6nc(nc([nH]3)c2c1)-c1ccccc1-6)c1ccccc51)-c1ccccc1-4)C(=O)N[C@@H](Cc1c[nH]c2ccccc12)C(=O)O [Compound 4, PcG3K5(RW)3] (X1-GGGKKKKKRWRWRW-OH) | 8.0 µM (≈ 19.2 µg/mL) | 16.1 µM (≈ 38.6 µg/mL) | 16.1 µM (≈ 38.6 µg/mL) | 2–4 times | – | – | – | – | increase of inhibitory efficacy upon illumination ([5]; red light / LED illumination vs no light, S. aureus and E. coli): ~ 140 fold; elimination of E. coli at low dose of light [6, 17]: about 80%; reduction of E. coli [6, 18]: 99.9%; log reduction of E. coli [6, 19]: 3 log; elimination of S. aureus at low dose of light [7, 17]: ~95%; reduction of S. aureus [7, 18]: ≤ 99.999%; log reduction of S. aureus [7, 19]: up to 5 log; log reduction of MRSA [8]: up to 5 log; time to be cleared out of organs [9]: ≤ 72 h; plasma half-life (t1/2) [10]: 11.09 h; bacterial proliferation of S. aureus at MIC [11]: completely stopped; bacterial proliferation of E. coli at MIC [12]: completely stopped; wound recovery with one-time illumination ([13]; 20 μM local, one-time 680-nm illumination 12.0 J/cm^2, 33.33 mW/cm^2, vs without illumination): better wound recovery than the ones without illumination at the first 3 days after surgery; wound healing of S. aureus infected excisional wounds ([13]; 50 μl of 20 μM local administration, without light, n = 6 per group): promoted wound healing and prevented or alleviated the infection; viability at 24 h [14]: > 90%
N=C(N)NCCC[C@H](NC(=O)CNC(=O)CNC(=O)CNC(=O)c1ccc2c3nc4nc(nc5[nH]c(nc6nc(nc([nH]3)c2c1)-c1ccccc1-6)c1ccccc51)-c1ccccc1-4)C(=O)N[C@@H](Cc1c[nH]c2ccccc12)C(=O)N[C@@H](CCCNC(=N)N)C(=O)N[C@@H](Cc1c[nH]c2ccccc12)C(=O)N[C@@H](CCCNC(=N)N)C(=O)N[C@@H](Cc1c[nH]c2ccccc12)C(=O)N[C@@H](CCCCN)C(=O)N[C@@H](CCCCN)C(=O)N[C@@H](CCCCN)C(=O)N[C@@H](CCCCN)C(=O)N[C@@H](CCCCN)C(=O)O [Compound 5, PcG3(RW)3K5] (X1-GGGRWRWRWKKKKK-OH) | 16.1 µM (≈ 38.6 µg/mL) | 16.1 µM (≈ 38.6 µg/mL) | 16.1 µM (≈ 38.6 µg/mL) | 2–4 times | – | – | – | – | –
H-GGGKKKKKRWRWRW-OH [Compound 1, G3K5(RW)3] | 107.8 µM | 107.8 µM | >215.6 µM | – | 45.6 ± 2.9 µM | 61.8 ± 4.3 µM | 44.6 ± 4.72 µM | 59.2 ± 1.97 µM | –
H-GGGRWRWRWKKKKK-OH [Compound 2, G3(RW)3K5] | 107.8 µM | 107.8 µM | >215.6 µM | – | 68 ± 3.2 µM | 135 ± 25.3 µM | 71.6 ± 2.82 µM | 129 ± 30.3 µM | –
